# Source: US20260076973A1 (priority 2023, published 2026)
# Structures can show the parent of a compound that is named as a salt.
# Tested on: SARS-CoV-2 (WA1)
# Experiment: microbe, parasite or virus in culture
# Format: cell-based
# Conditions: Severe acute respiratory syndrome coronavirus 2, Vero C1008
row,SMILES,IC50 [µM]
1,"Cc1ccc(Nc2nc(N3CCOCC3)nc(N3CCOCC3)n2)cc1C [VIRADEM-10884, (3,4-dimethylphenyl)-(4,6-dimorpholin-4-yl-[1,3,5]triazin-2-yl)-amine]",0.08

# Same assay, conditions: Severe acute respiratory syndrome coronavirus 2, Vero C1008, VIRADEM compounds, SARS-CoV-2(WA1) CPE assay, Round 2, concentration range 1000-0.05 nM, Vero E6; read-out: IC50
row,SMILES,IC50 [µM]
1,"CCOc1ccc(Nc2nc(N3CCOCC3)nc(N3CCOCC3)n2)cc1 [VIRADEM-9794, (4,6-Dimorpholin-4-yl-[1,3,5]triazin-2-yl)-(4-ethoxyphenyl)-amine hydrochloride]",> 1
2,"CCCCc1ccc(Nc2nc(N3CCOCC3)nc(N3CCOCC3)n2)cc1 [VIRADEM-10257, (4-n-Butylphenyl)-(4,6-dimorpholin-4-yl-[1,3,5]triazin-2-yl)-amine hydrochloride]",> 1
3,"Clc1ccc(Nc2nc(N3CCOCC3)nc(N3CCOCC3)n2)cc1Cl [VIRADEM-10258, (3,4-Dichlorophenyl)-(4,6-dimorpholin-4-yl-[1,3,5]triazin-2-yl)-amine hydrochloride]",0.61
4,"c1ccc(Nc2nc(N3CCOCC3)nc(N3CCOCC3)n2)cc1 [VIRADEM-10846, (4,6-Dimorpholin-4-yl-[1,3,5]triazin-2-yl)-phenylamine hydrochloride]",> 1
5,"Cc1cccc(Nc2nc(N3CCOCC3)nc(N3CCOCC3)n2)c1 [VIRADEM-10848, (4,6-Dimorpholin-4-yl-[1,3,5]triazin-2-yl)-m-tolyl-amine hydrochloride]",> 1
6,"Fc1ccc(Nc2nc(N3CCOCC3)nc(N3CCOCC3)n2)cc1 [VIRADEM-10849, (4,6-Dimorpholin-4-yl-[1,3,5]triazin-2-yl)-(4-fluorophenyl)-amine hydrochloride]",> 1
7,"S=C(NNc1nc(N2CCOCC2)nc(N2CCOCC2)n1)Nc1ccccc1 [VIRADEM-10867, 2-(4,6-dimorpholine-4-yl-1,3,5-triazine-2-yl)-N-phenylhydrazine-carbothioamide]",> 1
8,"COc1cccc(Nc2nc(N3CCOCC3)nc(N3CCOCC3)n2)c1 [VIRADEM-10879, (4,6-Dimorpholin-4-yl-[1,3,5]triazin-2-yl)-(3-methoxyphenyl)-amine hydrochloride]",> 1
9,"COc1ccccc1Nc1nc(N2CCOCC2)nc(N2CCOCC2)n1 [VIRADEM-10881, (4,6-Dimorpholin-4-yl-[1,3,5]triazin-2-yl)-(2-methoxyphenyl)-amine hydrochloride]",> 1
10,"Cc1ccc(Nc2nc(N3CCOCC3)nc(N3CCOCC3)n2)cc1 [VIRADEM-10882, (4,6-Dimorpholin-4-yl-[1,3,5]triazin-2-yl)-p-tolyl-amine hydrochloride]",> 1
11,"CCc1ccc(Nc2nc(N3CCOCC3)nc(N3CCOCC3)n2)cc1 [VIRADEM-10883, (4,6-Dimorpholin-4-yl-[1,3,5]triazin-2-yl)-(4-ethylphenyl)-amine hydrochloride]",0.99
12,"COc1ccc(Nc2nc(N3CCOCC3)nc(N3CCOCC3)n2)cc1 [VIRADEM-10885, (4,6-Dimorpholin-4-yl-[1,3,5]triazin-2-yl)-(4-methoxyphenyl)-amine hydrochloride]",> 1
13,"Cc1ccc(Nc2nc(N3CCOCC3)nc(N3CCOCC3)n2)cc1Cl [VIRADEM-10886, (3-Chloro-4-methylphenyl)-(4,6-dimorpholin-4-yl-[1,3,5]triazin-2-yl)-amine hydrochloride]",0.31
14,"Cc1cc(C)cc(Nc2nc(N3CCOCC3)nc(N3CCOCC3)n2)c1 [VIRADEM-10887, (3,5-Dimethylphenyl)-(4,6-dimorpholin-4-yl-[1,3,5]triazin-2-yl)-amine]",> 1
15,"FC(F)(F)Oc1ccc(Nc2nc(N3CCOCC3)nc(N3CCOCC3)n2)cc1 [VIRADEM-10891, (4,6-Dimorpholin-4-yl-[1,3,5]triazin-2-yl)-(4-trifluoromethoxyphenyl)-amine hydrochloride]",> 1
16,"c1ccc(Oc2ccc(Nc3nc(N4CCOCC4)nc(N4CCOCC4)n3)cc2)cc1 [VIRADEM-10892, (4,6-Dimorpholin-4-yl-[1,3,5]triazin-2-yl)-(4-phenoxyphenyl)-amine hydrochloride]",> 1
17,"Fc1ccc(Nc2nc(N3CCOCC3)nc(N3CCOCC3)n2)cc1Cl [VIRADEM-10893, (3-Chloro-4-fluorophenyl)-(4,6-dimorpholin-4-yl-[1,3,5]triazin-2-yl)-amine hydrochloride]",> 1
18,"Clc1ccc(Nc2nc(N3CCOCC3)nc(N3CCOCC3)n2)cc1 [VIRADEM-10894, (4-Chlorophenyl)-(4,6-dimorpholin-4-yl-[1,3,5]triazin-2-yl)-amine hydrochloride]",0.84

row,SMILES,IC50 [µM]
1,"Clc1cccc(Nc2nc(N3CCOCC3)nc(N3CCOCC3)n2)c1 [VIRADEM-10902, (3-Chlorophenyl)-(4,6-dimorpholin-4-yl-[1,3,5]triazin-2-yl)-amine hydrochloride]",> 1
2,"C1CCN(c2nc(N3CCOCC3)nc(N3CCOCC3)n2)CC1 [VIRADEM-10903, 2,4-Dimorpholin-4-yl-6-piperidin-1-yl-[1,3,5]triazin hydrochloride]",> 1
3,"COc1ccc(Nc2nc(N3CCCCC3)nc(N3CCCCC3)n2)cc1 [VIRADEM-11041, (4,6-Dipiperidine-1-yl-[1,3,5]triazin-2-yl)-(4-methoxyphenyl)-amine hydrochloride]",> 1
4,"Cc1ccc(Nc2nc(C3CCNC3)nc(C3CCNC3)n2)cc1 (stereo not drawn) [VIRADEM-11139, (4,6-Dipyrrolidin-4-yl-[1,3,5]triazin-2-yl)-p-tolyl-amine hydrochloride]",> 1
5,"Clc1cccc(Nc2nc(N3CCCCC3)nc(N3CCCCC3)n2)c1 [VIRADEM-11499, (3-Chlorophenyl)-(4,6-dipiperidine-1-yl-[1,3,5]triazin-2-yl)-amine hydrochloride]",> 1
6,"c1ccc(Oc2ccc(Nc3nc(C4CCNC4)nc(C4CCNC4)n3)cc2)cc1 (stereo not drawn) [VIRADEM-11503, (4,6-Dipyrrolidin-4-yl-[1,3,5]triazin-2-yl)-(4-phenoxyphenyl)-amine hydrochloride]",> 1
7,"CC(=O)Nc1ccc(Nc2nc(N3CCCC3)nc(N3CCCC3)n2)cc1 [VIRADEM-11510, N-[4-(4,6-Dipyrrolidin-1-yl-[1,3,5]triazin-2-ylamino)-phenyl]-acetamide hydrochloride]",> 1
8,"CCCCc1ccc(Nc2nc(N3CCCC3)nc(N3CCCC3)n2)cc1 [VIRADEM-11511, (4-Butylphenyl)-(4,6-dipyrrolidin-1-yl-[1,3,5]triazin-2-yl)-amine hydrochloride]",> 1
9,"CCOc1ccc(Nc2nc(N3CCCC3)nc(N3CCCC3)n2)cc1 [VIRADEM-11515, (4,6-Dipyrrolidin-1-yl-[1,3,5]triazin-2-yl)-(4-ethoxyphenyl)-amine hydrochloride]",> 1
10,"c1cc2c(cc1Nc1nc(N3CCCC3)nc(N3CCCC3)n1)OCO2 [VIRADEM-11522, Benzo[1,3]dioxol-5-yl-(4,6-dipyrrolidin-1-yl-[1,3,5]triazin-2-yl)-amine hydrochloride]",> 1
11,"c1ccc(Nc2nc(N3CCCC3)nc(N3CCCC3)n2)cc1 [VIRADEM-11528, (4,6-Dipyrrolidin-1-yl-[1,3,5]triazin-2-yl)-phenylamine hydrochloride]",> 1
12,"c1cc2c(cc1Nc1nc(Nc3ccc4c(c3)OCO4)nc(N3CCOCC3)n1)OCO2 [VIRADEM-11566, N,N^1-bis-benzo[1,3]dioxol-5-yl-6-morpholin-4-yl-[1,3,5]triazine-2,4-diamine]",0.32
13,"COc1ccccc1Nc1nc(N2CCCC2)nc(N2CCCC2)n1 [VIRADEM-11597, (4,6-Dipyrrolidin-1-yl-[1,3,5]triazin-2-yl)-(2-methoxyphenyl)-amine hydrochloride]",> 1
14,"CCOC(=O)c1ccc(Nc2nc(Nc3ccc(F)cc3)nc(N3CCOCC3)n2)cc1 [VIRADEM-11660, 4-[4-(4-Fluorophenylamino)-6-morpholin-4-yl-[1,3,5]triazin-2-ylamino]benzoic acid ethyl ester]",0.12
15,"NC1=NC(Nc2ccc3c(c2)OCO3)N(c2ccc(F)cc2)C(N2CCOCC2)=N1 (stereo not drawn) [VIRADEM-11674, N-Benzo[1,3]dioxol-5-yl-N^1-(4-fluorophenyl)-6-morpholin-4-yl-[1,3,5]triazine-2,4-diamine hydrochloride]",0.2
16,"Cc1cccc(N2C(N3CCOCC3)=NC(N)=NC2Nc2ccc(Cl)cc2)c1 (stereo not drawn) [VIRADEM-11680, N-(4-Chlorophenyl)-6-morpholin-4-yl-N^1-m-tolyl-[1,3,5]triazine-2,4-diamine hydrochloride]",> 1
17,"CC(=O)c1cccc(Nc2nc(Nc3cccc(C)c3)nc(N3CCOCC3)n2)c1 [VIRADEM-11778, 1-[3-(4-Morpholin-4-yl-6-m-tolylamino-[1,3,5]triazin-2-ylamino)-phenyl]-ethanone hydrochloride]",0.32
18,"Cc1cccc(N2C(N3CCOCC3)=NC(N)=NC2Nc2cccc(Cl)c2)c1 (stereo not drawn) [VIRADEM-11781, N-(3-Chlorophenyl)-6-morpholin-4-yl-N^1-m-tolyl-[1,3,5]triazine-2,4-diamine hydrochloride]",0.11

# Same assay, conditions: VIRADEM compounds, SARS-CoV-2(WA1) CPE assay, Round 2, concentration range 1000-0.05 nM, Vero E6; read-out: IC50
row,SMILES,IC50 [µM]
1,"COC(=O)c1ccc(Nc2nc(N3CCOCC3)nc(N3CCOCC3)n2)cc1 [VIRADEM-10890, 4-(4,6-Dimorpholin-4-yl-[1,3,5]triazin-2-ylamino-benzoic acid methyl ester hydrochloride]",> 1
2,"c1cc2c(cc1Nc1nc(N3CCCC3)nc(N3CCCC3)n1)OCCO2 [VIRADEM-11596, -(2,3-dihydrobenzo[1,4]dioxin-6-yl)-(4,6-dipyrrolidin-1-yl-[1,3,5]triazin-2-yl)-amine hydrochloride]",> 1
3,"CCc1ccc(Nc2nc(Nc3ccc(Cl)c(Cl)c3)nc(N3CCOCC3)n2)cc1 [VIRADEM-11758, N-(3,4-Dichlorophenyl)-N^1-(4-ethyphenyl)-6-morpholin-4-yl-[1,3,5]triazine-2,4-diamine]",> 1
4,"Cc1cc(C)cc(Nc2nc(Nc3ccc(Cl)c(Cl)c3)nc(N3CCOCC3)n2)c1 [VIRADEM-11759, N-(3,4-Dichlorophenyl)-N^1-(3,5-dimethyphenyl)-6-morpholin-4-yl-[1,3,5]triazine-2,4-diamine]",0.35
5,"CCNc1nc(NCC)nc(Nc2ccc(C)c(C)c2)n1 [VIRADEM-11768, N-(3,4-Dimethylhenyl)-N^1,N^2-diethyl-[1,3,5]triazine-2,4,6-triamine hydrochloride]",> 1
